Consider one compound from patent US20200254026A1, “AGENT FOR PROMOTING MIGRATION OF PLURIPOTENT STEM CELLS” (NIPPON ZOKI PHARMACEUTICAL CO., LTD., priority 2015, published 2020).

Structures are written as SMILES.

The test relates to Muse cells (SSEA-3-positive cells). Nature of the test: Cell mobility analysis (EZ-TAXIScan), chemotactic ability of Muse cells. The format is cell-based. Conditions: SSEA-3-positive cells from human bone marrow mesenchymal stem cells; 2 μM S1P as positive control; photographed every 10 minutes. How it is done:
Mesenchymal stem cells derived from human bone marrow in a concentration of 1×10^7 cells/mL were prepared using an FACS buffer containing Dulbecco PBS, 0.5% bovine serum albumin, and 2 mM EDTA (ethylenediaminetetraacetic acid). Thereto, an anti-SSEA-3 antibody (diluted 400 times) was added as a primary antibody. Reaction was allowed to proceed on ice for 1 hour while being suspended at appropriate times, followed by centrifugation for supernatant removal. Then, the addition and removal of an FACS buffer were repeated three times for rinsing. Thereto, an FITC-labeled anti-rat-IgM antibody (diluted 100 times) was added as a secondary antibody. Subsequently, in the same manner as above, reaction was allowed to proceed on ice for 1 hour and then addition and removal of an FACS buffer were repeated three times for rinsing. SSEA-3-positive cells were separated by FACS the day before measurement, followed by overnight culturing under conditions of 37° C. and 5% CO2. […] The resulting cell suspension was injected into each well of an EZ-[…] (registered trademark; the same applies hereinafter) holder chamber (GE Healthcare), and the cells were aligned properly in front of a terrace by a water-level difference method. […] The EZ-[…] holder chamber was placed in an incubator under conditions of 37° C. and 5% CO2. […]

For `CCCCCCCCCCCCC/C=C/[C@@H](O)[C@@H](N)COP(=O)(O)O` [S1P, sphingosine-1-phosphate], the “movement of Muse cells (chemotactic ability with time)” value is “same movement of Muse cells was observed”.
